The values that follow come from patent US4735793A, “Carboxy, carboalkoxy and carbamile substituted isonitrile radionuclide complexes” (Massachusetts Institute of Technology, priority 1985, dated 1988).

The conditions of data set [1]: rabbit, in vivo, iv.
Description: (§2) Rabbits were anesthetized with Ketamine and Nembutal™ and positioned beneath a gamma camera to allow continuous collection of data including a chest and abdomen view. 1 mCi of the test agent as specified below was injected via an ear vein and data collected continuously at 60 second intervals for 60 minutes. Curves were generated by drawing regions of interest over selected tissues and normalizing to counts per minute per pixel.
The time of maximum activity in the liver post injection is "^t max", while "t1/2" is the apparent half life of the clearance curve from ^t max. The latter data is an estimate based on data collected to 60 minutes after administration. This assumes a simple exponential curve with time, although more extensive studies might indicate more components are actually present.
The nature of data set [2]: Scintigraphic images in animal and human tests. It counts as in vivo. To be noted: for usefulness for imaging the heart: in vivo. On the procedure:
Scintigrapic Imaging Procedure in Animals
(§1) Two rabbits were anesthetized with sodium pentobarbital and injected via an ear vein with 3-8 mCi of ^99m Tc-isonitrile complex. One rabbit was imaged using a gamma camera equipped with a pinhole collimator positioned directly over the chest. Three minute static images were acquired at 5, 10, […], 40, 50 and 60 minutes post injection. A second rabbit was used to investigate the relative whole body distribution of activity for 60 minutes post-injection. Immediately post-injection, 300 thousand count images were acquired in the following sequence of projections: chest, anterior heart, whole body, anterior heart, left lateral whole body, anterior heart, lateral heart, anterior heart.
Swine were sedated with intramuscular injections of Ketamine and acepromazine, and anesthetized with sodium pentobarbital. The animals were positioned for anterior image acquisition over the chest under a low energy, high resolution collimator and injected with 10-12 mCi ^99m Tc-isonitrile complex via a leg vein. The liver was covered with a lead shield, and three minute images were acquired at 5, 10, 20, 30, 40, 50 and 60 minutes post-injection.
After anesthetization with sodium pentobarbital, dogs were injected with 25 mCi of ^99m Tc and positioned for anterior chest image acquisition using a pinhole collimator. Again, three minute images were obtained at 5, 10, 20, 30, 40, 50 and 60 minutes post-injection.

Data set [3] is described as follows: Scintigraphic imaging of the heart in rabbits. It counts as in vivo, rabbit. The method, then: as §1
FIG. 6(a) is a scintigraphic image of a rabbit injected with a complex of ^99m Tc-carboethoxyisopropylisonitrile at 5 minutes after injection, while FIG. 6(b) is a scintigraphic image of the same rabbit at 15 minutes after injection. FIG. 7(a) is a scintigraphic image of a rabbit injected with a complex of ^99m Tc-2-carboethoxyethylisonitrile at 1, 10, 15 and 20 minutes post injection. FIG. 7 (b) is a scintigraphic image of a rabbit injected with the above complex at 31 minutes post-injection. The heart is at (A), the gall bladder at (B) and the site of injection at (C). The interpretation of these images is known to the person of ordinary skill in this field.

For data set [4] the following is noted: rabbit, in vivo.
Description: as §2
The complexes were prepared, injected and imaged as described above.

As to `[C-]#[N+]C(C)C` [CNC(CH3)2 R, R = --H, isopropylisonitrile, reference compound], in data set [1], the t1/2 (apparent half life of the liver clearance curve from tmax) was 98 min and the “tmax (time of maximum activity in the liver post injection)” value came out at 5 min.
Take “^99m Tc-Hexakis-2-carboethoxyethylisonitrile Technetium (I) [CNCH2 CH2 R, R = --COOC2 H5]”: in data set [1], the “t1/2 (apparent half life of the liver clearance curve from tmax)” value is 17 min and the “tmax (time of maximum activity in the liver post injection)” value is on record as 2 min. For the same compound, the image quality result in data set [2] (animal and human tests) is “excellent images in both animal and human tests”. Also, in data set [2], the “usefulness for imaging the heart” value is “particularly useful for imaging the heart”.
Consider `[C-]#[N+]C` [CNCH2 R, R = --H, methyl isonitrile, reference compound], for which, in data set [1], the “t1/2 (apparent half life of the liver clearance curve from tmax)” value is reported as 88 min and the “tmax (time of maximum activity in the liver post injection)” value is on record as 14 min.
In the same order, the values of `[C-]#[N+]CC` [CNCH(R)CH3, R = --H, ethyl isonitrile, reference compound] are 270 min and 2 min.
Take “Hexakis carbomethoxymethylisonitrile Technetium Cation [CNCH2 R, R = --COOCH3]”: in data set [1], the “t1/2 (apparent half life of the liver clearance curve from tmax)” value is listed as 37 min and the “tmax (time of maximum activity in the liver post injection)” value is recorded as 1 min.
“^99m Tc-Hexakis-1-carbomethoxyisopropylisonitrile Technetium (I) [CNC(CH3)2 R, R = --COOCH3]”: in data set [3] (by 20 minutes after injection, after liver clearance), the “resolution of the apex of the heart” value was “excellent resolution of the apex”. Also, the “resolution of the myocardium” value in data set [3] (five minutes after injection) is given as “very good to excellent resolution of the myocardium”. The “visualization of the apex of the heart” value in data set [3] (initially, background noise from liver uptake) is “initially prevents clear visualization of the apex of the heart”. Moreover, the lung clearance result in data set [4] is reported as “rapid lung clearance”. Moreover, in data set [1], the t1/2 (apparent half life of the liver clearance curve from tmax) turned out to be 35 min and the “tmax (time of maximum activity in the liver post injection)” value is recorded as 3 min. Moreover, in data set [2], the “usefulness for imaging the heart” value is “particularly useful for imaging the heart”.
As for “^99m TC-hexakis carbo-t-butoxymethylisonitrile technetium [CNCH2 R, R = --COO^t C4 H9]”, in data set [1], the “t1/2 (apparent half life of the liver clearance curve from tmax)” value turned out to be 25 min and the “tmax (time of maximum activity in the liver post injection)” value was determined as 5 min.
